Reference: patent publication US20020058288A1, “TOXOPLASMA GONDII GLYCOCONJUGATES” (priority 1995, published 2002)

System: Wistaria floribunda agglutinin
Assay: Lectin affinity chromatography on W. floribunda agglutinin agarose
Assay type: binding
Details: elution with 100 mM N-acetylgalactosamine as specific inhibitor, FIG. 7
Procedure: Lectin affinity chromatography was performed as previously described (Nakano et al., Arch. Biochem. Biophys. 311, 117-126, 1994). Briefly, radiolabeled core glycans derived from glycolipid II, III (core glycan A and B respectively) and rat brain THY1 membrane anchor were applied to a 1 ml column of W. floribunda agglutinin agarose (5 mg lectin/ml gel) equilibrated in 50 mM Tris-HCl, pH 7.4 containing 0.02% sodium azide. Elution was accomplished using 25 ml of equilbration buffer followed by 15 ml of the same buffer containing 100 mM N-acetylgalactosamine as specific inhibitor.
FIG. 7: Analysis of core glycans derived from TLC purified glycolipids labelled with ^3H glucosamine on Wisaria floribunda agglutinin agarose: Core glycan A (A), core glycan (B), Man4GalNAcAHM from rat brain Thy1 anchor (C), arrow indicates buffer change

Substance: Man3(GalNAc)AHM [Core glycan A]
- Affinity towards W. floribunda agglutinin column: bound to the column
